# System: animals with collagen-induced arthritis
# Assay: Collagen-induced arthritis in mice: treatment after disease onset, assessed by clinical score and paw swelling
# Assay type: in vivo, male DBA/1 mice
# Description: Arthritis was induced in male DBA/1 mice (8–10 weeks old) by intradermal injection of bovine type II collagen, purified in-house at the Kennedy Institute of Rheumatology as previously described (Miller, E. J. et al. (1972)). Collagen was administered in complete Freund's adjuvant (Difco, Detroit, Michigan). Onset of arthritis was variable, occurring from Day 14 up to Day 40 after immunization. Arthritis onset was considered to occur on the day that swelling and/or erythema were observed. Clinical score is a composite of disease severity and the number of limbs affected, and was monitored daily from onset of disease and used as an assessment of disease progress. The scoring used was: 0, Normal; 1, slight swelling with erythema; 2, pronounced swelling; 3, joint rigidity. In addition, the extent of paw swelling reflects the degree of edema in affected limbs. Arthritis increased progressively over 10 days as reflected by both clinical score and paw swelling.
# Anti-TNF antibody was used in these experiments was as described by Marinova-Mutafchieva, L. et al. (2000). NB1011 was administered daily by intraperitoneal administration at 2.5 mg total dose per day. Anti-TNF antibody was compared with NB1011 because, at present, antiTNF antibody is the optimal single agent for treatment of collagen induced arthritis (Marinova-Mutafchieva, L. et al. (2000)).
# Following immunization with collagen, mice were maintained until a significant clinical score for disease progression was achieved (between 2.5 and 3.5, see FIG. 1 and Methods). Mice were then treated with control saline injections, NB1011, or with anti-TNF antibody as a positive control. […] Paw swelling is an alternative measure of CIA disease severity.
substance,measurement,setting,value
5-(2-Bromovinyl)-2′-deoxyuridine phenyl N-methoxy-L-alaninyl phosphoramidate [NB1011],difference between NB1011 and anti-TNF groups with regard to clinical score,"FIG. 1, NB1011 compared with anti-TNF positive control",no significant difference
same,disease suppression by clinical score,"FIG. 1, vs saline-treated control group, p<0.05, NB1011 intraperitoneal daily, 2.5 mg total dose per day, treatment started at clinical score between 2.5 and 3.5",significant disease suppression
same,difference between NB1011 and anti-TNF groups with regard to paw swelling,"FIG. 2, NB1011 compared with anti-TNF positive control",no significant difference
same,suppression of swelling relative to anti-TNF group,"FIG. 2, qualitative remark",may have been less dramatic
same,disease suppression by paw swelling,"FIG. 2, vs saline-treated control group, p<0.05, NB1011 intraperitoneal daily, 2.5 mg total dose per day",significant disease suppression
same,activity by comparison with earlier reported work on other agents,comparison with literature (Malfait 2000; Miotla 2000; Marinova-Mutafchieva 2000),"superior to anti-angiogenesis agents, an anti-CD4 immunosuppressive agent, and cannabidiol"

# From US7138388B2, “Methods to treat autoimmune and inflammatory conditions” (Celmed Oncology (USA), Inc., priority 2001, dated 2006)
